Reference: ChEMBL document CHEMBL1212747, “In vitro activity of thimerosal against ocular pathogenic fungi” (2010)
Converted amounts (≈) assume the structure as drawn.

Assays:
Type in all cases: functional
Fusarium sp. = test: Antifungal activity against Fusarium sp. clinical isolates after 48 hrs by broth microdilution method
[1] = Antifungal activity against Fusarium lateritium clinical isolates after 48 hrs by broth microdilution method
Aspergillus versicolor = test: Antifungal activity against Aspergillus versicolor species complex clinical isolates after 48 hrs by broth microdilution method
Aspergillus wentii = test: Antifungal activity against Aspergillus wentii clinical isolates after 48 hrs by broth microdilution method
Aspergillus candidus = test: Antifungal activity against Aspergillus candidus clinical isolates after 48 hrs by broth microdilution method
Aspergillus oryzae = test: Antifungal activity against Aspergillus oryzae species complex clinical isolates after 48 hrs by broth microdilution method
Aspergillus ochraceus = test: Antifungal activity against Aspergillus ochraceus clinical isolates after 48 hrs by broth microdilution method
Aspergillus flavus = test: Antifungal activity against Aspergillus flavus species complex clinical isolates after 48 hrs by broth microdilution method
Aspergillus niger = test: Antifungal activity against Aspergillus niger clinical isolates after 48 hrs by broth microdilution method
[2] = Antifungal activity against Fusarium poae clinical isolates after 48 hrs by broth microdilution method
Aspergillus nidulans = test: Antifungal activity against Aspergillus nidulans clinical isolates after 48 hrs by broth microdilution method
Alternaria alternata = test: Antifungal activity against Alternaria alternata clinical isolates after 48 hrs by broth microdilution method
Fusarium avenaceum = test: Antifungal activity against Fusarium avenaceum species complex clinical isolates after 48 hrs by broth microdilution method
Fusarium oxysporum = test: Antifungal activity against Fusarium oxysporum clinical isolates after 48 hrs by broth microdilution method
Aspergillus fumigatus = test: Antifungal activity against Aspergillus fumigatus species complex clinical isolates after 48 hrs by broth microdilution method
Fusarium verticillioides = test: Antifungal activity against Fusarium moniliforme species complex clinical isolates after 48 hrs by broth microdilution method
Fusarium solani = test: Antifungal activity against Fusarium solani species complex clinical isolates after 48 hrs by broth microdilution method
Aspergillus sp. = test: Antifungal activity against Aspergillus sp. clinical isolates after 48 hrs by broth microdilution method
[3] = Fusarium sp., 48 h, read-out: MIC90

## CC[C@H](C)C[C@H](C)CCCCCCCCC(=O)N[C@H]1C[C@@H](O)[C@@H](NCCN)NC(=O)[C@@H]2[C@@H](O)CCN2C(=O)[C@H]([C@H](O)CCN)NC(=O)[C@H]([C@H](O)[C@@H](O)c2ccc(O)cc2)NC(=O)[C@@H]2C[C@@H](O)CN2C(=O)[C@H]([C@@H](C)O)NC1=O [CASPOFUNGIN]
Fusarium sp.; [3]
  MIC90: > 16 µg/mL

## C[C@@H]1C/C=C/C=C/C=C/C=C/[C@H](O[C@@H]2O[C@H](C)[C@@H](O)[C@H](N)[C@@H]2O)C[C@@H]2O[C@](O)(C[C@@H](O)C[C@H]3O[C@@H]3/C=C/C(=O)O1)C[C@H](O)[C@H]2C(=O)O [NATAMYCIN]
[1]
  MIC50: 4 µg/mL (≈ 6.01 µM)
  MIC90: 8 µg/mL (≈ 12 µM)
Aspergillus versicolor
  MIC: 8 µg/mL (≈ 12 µM)
  MIC50: 8 µg/mL (≈ 12 µM)
  MIC90: 32 µg/mL (≈ 48.1 µM)
Aspergillus wentii
  MIC: 4 µg/mL (≈ 6.01 µM)
  MIC50: 4 µg/mL (≈ 6.01 µM)
  MIC90: 32 µg/mL (≈ 48.1 µM)
Aspergillus candidus
  MIC: 4 µg/mL (≈ 6.01 µM)
  MIC50: 4 µg/mL (≈ 6.01 µM)
  MIC90: 32 µg/mL (≈ 48.1 µM)
Aspergillus oryzae
  MIC: 32 µg/mL (≈ 48.1 µM)
  MIC50: 32 µg/mL (≈ 48.1 µM)
  MIC90: 32 µg/mL (≈ 48.1 µM)
Aspergillus ochraceus
  MIC: 4 µg/mL (≈ 6.01 µM)
  MIC50: 4 µg/mL (≈ 6.01 µM)
  MIC90: 32 µg/mL (≈ 48.1 µM)
Fusarium sp.
  MIC90: 16 µg/mL (≈ 24 µM)
Fusarium sp.; Fusarium sp., 48 h
  MIC: 4 µg/mL (≈ 6.01 µM)
  MIC50: 4 µg/mL (≈ 6.01 µM)
Fusarium sp.; [3]
  MIC90: 8 µg/mL (≈ 12 µM)
Aspergillus flavus
  MIC: 32 µg/mL (≈ 48.1 µM)
  MIC50: 32 µg/mL (≈ 48.1 µM)
  MIC90: 32 µg/mL (≈ 48.1 µM)
Aspergillus niger
  MIC: 4 µg/mL (≈ 6.01 µM)
  MIC50: 4 µg/mL (≈ 6.01 µM)
  MIC90: 32 µg/mL (≈ 48.1 µM)
[2]
  MIC50: 4 µg/mL (≈ 6.01 µM)
  MIC90: 8 µg/mL (≈ 12 µM)
Aspergillus nidulans
  MIC: 4 µg/mL (≈ 6.01 µM)
  MIC50: 4 µg/mL (≈ 6.01 µM)
  MIC90: 32 µg/mL (≈ 48.1 µM)
Alternaria alternata
  MIC: 4 µg/mL (≈ 6.01 µM)
  MIC50: 4 µg/mL (≈ 6.01 µM)
  MIC90: 4 µg/mL (≈ 6.01 µM)
Fusarium avenaceum
  MIC: 8 µg/mL (≈ 12 µM)
  MIC50: 8 µg/mL (≈ 12 µM)
  MIC90: 8 µg/mL (≈ 12 µM)
Fusarium oxysporum
  MIC: 4 µg/mL (≈ 6.01 µM)
  MIC50: 4 µg/mL (≈ 6.01 µM)
  MIC90: 8 µg/mL (≈ 12 µM)
Aspergillus fumigatus
  MIC: 4 µg/mL (≈ 6.01 µM)
  MIC50: 4 µg/mL (≈ 6.01 µM)
  MIC90: 4 µg/mL (≈ 6.01 µM)
Fusarium verticillioides
  MIC: 4 µg/mL (≈ 6.01 µM)
  MIC50: 4 µg/mL (≈ 6.01 µM)
  MIC90: 8 µg/mL (≈ 12 µM)
Fusarium solani
  MIC: 4 µg/mL (≈ 6.01 µM)
  MIC50: 4 µg/mL (≈ 6.01 µM)
  MIC90: 8 µg/mL (≈ 12 µM)
Aspergillus sp.
  MIC: 32 µg/mL (≈ 48.1 µM)
  MIC50: 32 µg/mL (≈ 48.1 µM)
  MIC90: 32 µg/mL (≈ 48.1 µM)

## C[C@@H]1[C@H](O)[C@@H](C)/C=C/C=C/C=C/C=C/C=C/C=C/C=C/[C@H](O[C@@H]2O[C@H](C)[C@@H](O)[C@H](N)[C@@H]2O)C[C@@H]2O[C@](O)(C[C@@H](O)C[C@@H](O)[C@H](O)CC[C@@H](O)C[C@@H](O)CC(=O)O[C@H]1C)C[C@H](O)[C@H]2C(=O)O [AMPHOTERICIN B]
[1]
  MIC50: 1 µg/mL (≈ 1.08 µM)
  MIC90: 2 µg/mL (≈ 2.16 µM)
Aspergillus versicolor
  MIC: 1 µg/mL (≈ 1.08 µM)
  MIC50: 1 µg/mL (≈ 1.08 µM)
  MIC90: 2 µg/mL (≈ 2.16 µM)
Aspergillus wentii
  MIC: 1 µg/mL (≈ 1.08 µM)
  MIC50: 1 µg/mL (≈ 1.08 µM)
  MIC90: 2 µg/mL (≈ 2.16 µM)
Aspergillus candidus
  MIC: 1 µg/mL (≈ 1.08 µM)
  MIC50: 1 µg/mL (≈ 1.08 µM)
  MIC90: 2 µg/mL (≈ 2.16 µM)
Aspergillus oryzae
  MIC: 1 µg/mL (≈ 1.08 µM)
  MIC50: 1 µg/mL (≈ 1.08 µM)
  MIC90: 2 µg/mL (≈ 2.16 µM)
Aspergillus ochraceus
  MIC: 1 µg/mL (≈ 1.08 µM)
  MIC50: 1 µg/mL (≈ 1.08 µM)
  MIC90: 2 µg/mL (≈ 2.16 µM)
Fusarium sp.
  MIC90: 2 µg/mL (≈ 2.16 µM)
Fusarium sp.; Fusarium sp., 48 h
  MIC: 1 µg/mL (≈ 1.08 µM)
  MIC50: 1 µg/mL (≈ 1.08 µM)
Fusarium sp.; [3]
  MIC90: 2 µg/mL (≈ 2.16 µM)
Aspergillus flavus
  MIC: 2 µg/mL (≈ 2.16 µM)
  MIC50: 2 µg/mL (≈ 2.16 µM)
  MIC90: 2 µg/mL (≈ 2.16 µM)
Aspergillus niger
  MIC: 1 µg/mL (≈ 1.08 µM)
  MIC50: 1 µg/mL (≈ 1.08 µM)
  MIC90: 2 µg/mL (≈ 2.16 µM)
[2]
  MIC50: 1 µg/mL (≈ 1.08 µM)
  MIC90: 2 µg/mL (≈ 2.16 µM)
Aspergillus nidulans
  MIC: 1 µg/mL (≈ 1.08 µM)
  MIC50: 1 µg/mL (≈ 1.08 µM)
  MIC90: 2 µg/mL (≈ 2.16 µM)
Alternaria alternata
  MIC: 0.125 µg/mL (≈ 0.135 µM)
  MIC50: 0.125 µg/mL (≈ 0.135 µM)
  MIC90: 0.125 µg/mL (≈ 0.135 µM)
Fusarium avenaceum
  MIC: 2 µg/mL (≈ 2.16 µM)
  MIC50: 2 µg/mL (≈ 2.16 µM)
  MIC90: 4 µg/mL (≈ 4.33 µM)
Fusarium oxysporum
  MIC: 1 µg/mL (≈ 1.08 µM)
  MIC50: 1 µg/mL (≈ 1.08 µM)
  MIC90: 2 µg/mL (≈ 2.16 µM)
Aspergillus fumigatus
  MIC: 1 µg/mL (≈ 1.08 µM)
  MIC50: 1 µg/mL (≈ 1.08 µM)
  MIC90: 2 µg/mL (≈ 2.16 µM)
Fusarium verticillioides
  MIC: 2 µg/mL (≈ 2.16 µM)
  MIC50: 2 µg/mL (≈ 2.16 µM)
  MIC90: 2 µg/mL (≈ 2.16 µM)
Fusarium solani
  MIC: 1 µg/mL (≈ 1.08 µM)
  MIC50: 1 µg/mL (≈ 1.08 µM)
  MIC90: 2 µg/mL (≈ 2.16 µM)
Aspergillus sp.
  MIC: 1 µg/mL (≈ 1.08 µM)
  MIC50: 1 µg/mL (≈ 1.08 µM)
  MIC90: 2 µg/mL (≈ 2.16 µM)

## Nc1nc(=O)[nH]cc1F [FLUCYTOSINE]
Fusarium sp.; [3]
  MIC90: > 64 µg/mL

## CC[C@@H]([C@H](C)O)n1ncn(-c2ccc(N3CCN(c4ccc(OC[C@@H]5CO[C@@](Cn6cncn6)(c6ccc(F)cc6F)C5)cc4)CC3)cc2)c1=O [POSACONAZOLE]
Fusarium sp.; [3]
  MIC90: > 8 µg/mL

## CC(=O)N1CCN(c2ccc(OCC3COC(Cn4ccnc4)(c4ccc(Cl)cc4Cl)O3)cc2)CC1 (stereo not given) [KETOCONAZOLE]
Fusarium sp.; [3]
  MIC90: > 16 µg/mL
